≈ marks a conversion by molar mass, not a printed value.
Tested on: multidrug-resistant M. tuberculosis Peru isolate
Experiment: microbe, parasite or virus in culture
Assay type: cell-based
Settings: Mycobacterium tuberculosis, 336 h, read-out: MIC MDR-TB

For O=C(/C=C/c1ccc([N+](=O)[O-])o1)c1ccc(N2CCOCC2)cc1 [Compound 1], which MIC is on record?
Its MIC is 0.976 µg/mL (≈ 2.97 µM).

How did the MIC turn out when O=C(/C=C/c1ccc([N+](=O)[O-])o1)c1ccc(N2CCCCC2)cc1 [Compound 2] was run?
The MIC was 1.95 µg/mL (≈ 5.98 µM).

Which MIC does the source give for CCN(CC)c1ccc(C(=O)/C=C/c2ccc([N+](=O)[O-])o2)cc1 [Compound 3] here?
The MIC was 0.488 µg/mL (≈ 1.55 µM).

Which MIC does the source give for CC[C@@H](CO)NCCN[C@@H](CC)CO [Ethambutol] here?
The MIC was 8 µg/mL (≈ 39.2 µM).

How did the MIC turn out when NNC(=O)c1ccncc1 [Isoniazid, reference compound] was run?
The MIC was over 500 µg/mL.

With CN(Cc1cnc2nc(N)nc(N)c2n1)c1ccc(C(=O)N[C@@H](CCC(=O)O)C(=O)O)cc1 [Methotrexate, reference compound] as the compound, how does the MIC read?
Its MIC is 250 µg/mL (≈ 550 µM).

How did the MIC turn out when O=[N+]([O-])c1cn2c(n1)OC[C@@H](OCc1ccc(OC(F)(F)F)cc1)C2 [Pretomanid] was run?
The MIC was 0.488 µg/mL (≈ 1.36 µM).

How did the MIC turn out when CO[C@H]1/C=C/O[C@@]2(C)Oc3c(C)c(O)c4c(O)c(c(/C=N/N5CCN(C)CC5)c(O)c4c3C2=O)NC(=O)/C(C)=C\C=C\[C@H](C)[C@H](O)[C@@H](C)[C@@H](O)[C@@H](C)[C@H](OC(C)=O)[C@@H]1C [Rifampicin] was run?
The MIC was over 500 µg/mL.
